This is an account of results in PMC9739695, “Water-Soluble Salts Based on Benzofuroxan Derivatives—Synthesis and Biological Activity” (International Journal of Molecular Sciences, 2022).

Assay [1] deals with bacterial microflora on barley seeds. Briefly: Growth of bacterial microflora on treated barley seeds. It is filed as cell-based. Conditions: all studied doses. The procedure: (§1) During phytopathological analyses of agricultural crops, the species composition of fungal and bacterial microflora was established. Laboratory studies were carried out on two nutrient media potato-agar (ingredients: potatoes—200 g; agar-agar—20 g; distilled water—1000 mL.) and potato-dextrose agar (ingredients: potatoes—200 g;dextrose—20 g; agar-agar—20 g; distilled water—1000 mL), according to the guidelines.
(§2) When evaluating the effectiveness of treatment of wheat, alfalfa, barley, rice, and sorghum seeds as fungicidal and bactericidal agents with preparation compounds at concentrations of 10, 20, and 40 mmol, their effect on the suppression of seed infection was evaluated.

Assay [2] relates to sorghum seeds. Briefly: Pre-sowing seed treatment, sowing qualities of sorghum seeds. It is filed as in vivo. As to conditions: for germination energy: control 52.3; for laboratory germination: control 57. The procedure:
as §2
(§3) […] The sowing qualities were evaluated (germination energy for 3–4 days, laboratory germination for 7–8 days) according to GOST 12038-84 [60]. Sowing qualities of seeds were determined in wet chambers. According to the sample, 50 seeds were taken in 4-fold repetition.

For assay [3], the system named is bacterial microflora on rice seeds. Put plainly: Growth of bacterial microflora on treated rice seeds. It is filed as cell-based. The procedure:
as §1, §2

Assay [4] concerns glycolysis in SH-SY5Y cells. Put plainly: Glycolysis stress test (ECAR, Seahorse XF96e). Conditions: 100 µM. Format: cell-based, Human.
Protocol: Using the cell metabolism analyzer Agilent Seahorse XF96e Analyzer (Seahorse Bioscience, North Billerica, MA, USA), the rate of extracellular acidification of the medium (ECAR) in cells of tumor origin SH-SY5Y was evaluated as a glycolysis measure.
The ability of compounds to suppress anaerobic glycolysis was studied using the Agilent Seahorse XF96e Analyzer (Seahorse Bioscience, North Billerica, MA, USA) by the level of hydrogen proton production in the studied samples on cell lines of neuroblastoma SH-SY5Y using a glycolysis stress test [62]. The rate of extracellular acidification of the medium was measured in real time, which made it possible to assess the intensity of glycolysis in cells by fixing the three main parameters of the glycolytic function: basal glycolysis, glycolytic capacity, and glycolytic reserve.
SH-SY5Y cells in the exponential growth phase were seeded in a 96-well Seahorse cell culture microplate. The planting density of the cell culture was 2 × 10^4/well. […]
The test compounds were added from port A at a concentration of 100 μM. To determine the effect of test compounds on basal glycolysis of neoplastic cells, 10 mM glucose was added from port B. The maximum glycolytic capacity was assessed by injecting oligomycin at a concentration of 1 μM from port C. […]
Assay [5] has as its system barley seeds. Briefly: Pre-sowing seed treatment, sowing qualities of barley seeds. Format: in vivo. Conditions: for germination energy / laboratory germination: control 95.2. The procedure: as §2, §3
Assay [6] deals with murine leukemia P388 in BDF1 mice. Put plainly: Antitumor activity in vivo, transplanted murine leukemia P388. Conditions: for increase in the average lifespan (ILS): single i.p. injection; for lifespan of animals: single i.p., doses from 1/8 MPD to MPD, control animals all die by day 11. The procedure:
The study of the antitumor activity of compounds 4e and 4g was carried out using transplanted experimental murine tumor leukemia P388. In the experiment, concentrations from 1.25 to 10 mg/kg were used for 4e, and from 0.625 to 5 mg/kg for 4g. The concentrations used correspond to values from 1/8 MPD to MPD for the studied compounds.
Studies of antitumor activity were carried out on hybrid male mice BDF1 [DBA2×C57Bl6] weighing from 22 to 24 g. In the experiment, clinically healthy animals were used, which were kept in the same conditions with a 12-h light and free access to water and food. Each experimental group included six animals. Transplantation of mouse leukemia P388 was performed intraperitoneally with a concentration of 10^6 cells in 200μLof 0.9% NaCl solution per animal. Compounds 4e and 4g were dissolved in 0.9% NaCl solution and administered intraperitoneally once in the dose range 1.25–10 mg/kg and 0.625–5 mg/kg, respectively. The compounds were administered the next day after tumor cell transplantation. Control animals received 0.9% NaCl solution. The effectiveness of therapy was assessed by the increase in the average life span (ILS, %) of the animals.

Assay [7] concerns fungal microflora (mushrooms) on alfalfa seeds. Put plainly: Growth of fungal microflora on treated alfalfa seeds. Format: cell-based. Conditions: 10 mmol. The procedure: as §1
When evaluating the effectiveness of treatment of wheat, alfalfa, barley, rice, and sorghum seeds as […], their effect on the suppression of seed infection was evaluated.

Take `O=[N+]([O-])c1c(Cl)cc2c(no[n+]2[O-])c1NCCCN1CCOCC1` [4e, 6-chloro-4-(3-(morpholino-4-ium)propylamino)-5-nitrobenzo[c][1,2,5]oxadiazole 1-oxide chloride]: the “effect on bacterial microflora” value was “slight suppression of the bacterial microflora” in assay [1], “positive effect on the suppression of bacterial microflora” in assay [3] (10 mmol) and “positive effect on the suppression of bacterial microflora” in assay [3] (20 mmol). Besides, the germination energy in assay [2] (10 mmol) is given as 33.3%; in assay [2] (20 mmol), 50.5%; in assay [2] (40 mmol) it was 50.5%; in assay [5] (10 mmol) it was 85.7%; in assay [5] (20 mmol), 96%; in assay [5] (40 mmol), 94%. Also, the laboratory germination in assay [2] (10 mmol) was 63.3%; in assay [2] (20 mmol), 56%; in assay [2] (40 mmol) it was 52.5%; in assay [5] (10 mmol), 85.7%; in assay [5] (20 mmol), 98%; in assay [5] (40 mmol) it was 99%. The “suppression of glycolytic function parameters” value in assay [4] (compared with control samples) came to 60%. In addition, the “sowing qualities of seeds compared with control” value in assay [5] (20 mmol) was “higher than control”. Moreover, in assay [6] (2.5 mg/kg), the “increase in the average lifespan (ILS)” value is recorded as 28%. The lifespan of animals entry in assay [6] is “up to 16 days”.

Turning to `CN(C)CCCNc1c([N+](=O)[O-])c(Cl)cc2c1no[n+]2[O-].Cl` [4g, 6-chloro-4-(3-(dimethylammonio)propylamino)-5-nitrobenzo[c][1,2,5]oxadiazole 1-oxide chloride], in assay [7], the “effect on fungal microflora” value is “positive effect on the suppression of fungal microflora”. Also, the germination energy in assay [2] (10 mmol) is 36.6%; in assay [2] (20 mmol) it was 61.9%; in assay [2] (40 mmol), 57.2%; in assay [5] (10 mmol), 52.3%; in assay [5] (20 mmol) it was 100%; in assay [5] (40 mmol), 100%. Besides, the laboratory germination in assay [2] (10 mmol) turned out to be 50%; in assay [2] (20 mmol), 71.4%; in assay [2] (40 mmol), 80.9%; in assay [5] (10 mmol) it was 52.3%; in assay [5] (20 mmol) it was 100%; in assay [5] (40 mmol) it was 100%. The “sowing qualities of seeds compared with control” value in assay [2] (20 mmol) was “higher than in the control”; in assay [2] (40 mmol), “higher than in the control”; in assay [5] (20 mmol), “higher than control”; in assay [5] (40 mmol), “higher than control”. For the same compound, the “glycolytic parameters (basal glycolysis, glycolytic capacity, glycolytic reserve)” value in assay [4] (ECAR) was “reaching a minimum”. The “increase in the average lifespan (ILS)” value in assay [6] (5 mg/kg) is listed as 25%. For the same compound, the lifespan of animals entry in assay [6] is reported as “up to 16 days”.
